Read-outs that look alike come from different tables or passages of the source.
How the values were obtained:
[1] = 0.15 M NaCl, 25° C.; cited from earlier work
[2] = Equilibrium study of Bi(AAZTA): competition of AAZTA with NTA for Bi^3+ by UV-spectrophotometry; assay type: physicochemical; settings: 0.15 M NaClO4
Experimental: The stability constant of Bi(AAZTA) was determined by following the competition reaction of AAZTA with NTA for Bi^3+ (Eq. (10)) with UV-spectrophotometry in the wavelength range of 210-350 nm. The concentration of Bi^3+ and NTA was 30.2 μM and 10 mM while that of the AAZTA was varied between 0 and 50 μM (6×2 mL samples with the addition of AAZTA to the pre-prepared Bi(NTA)2 complex) in 0.15 M NaClO4 solution. The pH was adjusted to pH=7.4 by stepwise addition of concentrated NaOH or HClO4. The samples were kept at 50° C. for a week and at 25° C. for two weeks in order to attain the equilibrium (the time needed to reach the equilibria was determined by spectrophotometry). The spectrophotometric measurements were made with the use of PerkinElmer Lambda 365 UV-Vis spectrophotometer at 25° C., using 1.0 cm cells. For the equilibrium calculation, the protonation constants of AAZTA and NTA ligands (AAZTA: log K1^H=10.29, log K2^H=6.51, log K3^H=3.86, log K4^H=1.94, log K5^H=1.00; NTA: log K1^H=9.22, log K2^H=2.98, log K3^H=1.06; 25° C., 0.15 M NaClO4) and the stability constants of Bi(NTA) and Bi(NTA)2 complexes (log KBi(NTA)=16.97, log βBi(NTA)2=26.21, 25° C., 0.15 M NaClO4) have been determined as it is described in the literature (Baranyai, Eur. J. Inorg. Chem., 2013, 147-162, KARADAKOV, Talanta, 1970, 17, 883-887). The equilibrium constants were calculated with the program PSEQUAD (L. Zekany and I. Nagypal in PSEQUAD, Vol. (Ed. D. Leggett), Springer US, 1985, pp. 291-353). Bi(NTA)2+HxAAZTA ? Bi(AAZTA)+2HyNTA (10) Thermodynamic stability constant of Bi(AAZTA) calculated from the UV-spectrophotometric studies of Bi^3+-NTA-AAZTA systems is log KBi(AAZTA)=26.45 (6) at 25° C. in 0.15 M NaClO4. By taking into account the protonation constant of AAZTA ligand (log K1^H=10.29, log K2^H=6.51, log K3^H=3.86, log K4^H=1.94, log K5^H=1.00, 25° C., 0.15 M NaClO4) and the stability constant of Bi(AAZTA) (log KBi(AAZTA)=26.45, 25° C. in 0.15 M NaClO4), the conditional stability constant of Bi(AAZTA) was calculated to be log K^condBi(AAZTA)=log KBi(AAZTA)/(1+αH)=23.5 at pH=7.4 and 25° C. in 0.15 M NaClO4 (αH=K1^H[H^+]+K1^HK2^H[H^+]^2+ . . . +K1^HK2^H . . . Kn^H[H^+]^n and K1^H, K2^H, . . . Kn^H are the protonation constant of the free ligand at pH=7.4 in 0.15 M NaClO4 solution).

[3] = Transchelation reaction between Bi(AAZTA) and DTPA by UV-spectrophotometry; assay type: physicochemical; settings: pH=9.0, 25° C., 0.15 M NaClO4
Experimental: The kinertic properties of Bi(AAZTA) was determined by following the transchelation reaction between Bi(AAZTA) and DTPA with UV-spectrophotometry at 278 nm and 25° C. in 0.15 M NaClO4 solution (stability constant of Bi(DTPA) is log KBi(DTPA)=29.3 at 25° C. in 0.6 M NaClO4, V. Kornev, A. Troubachev, Russ. J. Inorg. Chem, 1987, 32, 1419). In these experiments the concentration of Bi(AAZTA) was 0.1 mM while DTPA was applied in 10 and 20 fold excess to ensure the occurrence of pseudo-first order conditions. The pH was adjusted to 8.5, 9.0, 9.5, 10.0, 10.5 and 11.0 by stepwise addition of concentrated NaOH or HClO4. For keeping the pH values constant 0.01 M N-methyl-piperazine (pH≤10) buffers were used. At pH>10, buffer was not used to keep the constant pH due to the presence of OH^− in a high concentration. The pseudo-first-order rate constants (kd) were calculated by fitting the absorbance—time data sets for Bi(AAZTA)—DTPA system to Eq. (9). The dissociation rates (kd) of Bi(AAZTA) complex is independent from the [DTPA] and increase with the increase of pH.

[4] = assay type: physicochemical; settings: 25° C., 0.15 M NaCl
From the text: The thermodynamic properties of Sc(AAZTA-TATE) complex were characterized by the conditional stability constant (log K^cond=log K^therm/(1+αH) where αH=K1^H[H^+]+K1^HK2^H[H^+]^2+ . . . +K1^HK2^H . . . Kn^H[H^+]^n and K1^H, K2^H, . . . Kn^H are the protonation constant of the free ligand) at pH=7.4 in 0.15 M NaCl solution. To determine the log K^cond value of Sc(AAZTA-TATE) complex, the competition reaction of AAZTA-TATE with NTA for Sc^3+ have been studied by ^45Sc NMR spectroscopy (Bruker Avance III 400 spectrometer at 9.4 T) with the integral of Sc(NTA)2 complex (δSc=59.9 ppm) formed in the reactions (Eq. (4), H3NTA=nitrilo-triacetic acid, pH=7.4, 25° C., 0.15 M NaCl).
[formula] For the equilibrium characterization of Sc(AAZTA-TATE), 7 samples were prepared in which the concentration of Sc^3+ and AAZTA-TATE was 203.3 μM and 206.2 μM, while that of the NTA was varied between 0.0 and 20.06 mM (7×1 mL samples were prepared by the addition of AAZTA-TATE to the pre-prepared Sc(NTA)2 complex) in 0.15 M NaCl solution. […] The samples were kept at 25° C. for 8 weeks in order to attain the equilibrium (the time needed to reach the equilibria was determined by ^45Sc NMR spectroscopy).
To compare the equilibrium properties of Sc(AAZTA-TATE) with that of Sc(AAZTA), the conditional stability constant of Sc(AAZTA) was determined by following the competition reaction of AAZTA with NTA for Sc^3+ with ^45Sc NMR spectroscopy by using the integral of Sc(NTA)2 complex (δSc=59.9 ppm) formed in the reactions (Eq. (5), pH=7.4, 25° C., 0.15 M NaCl).
For the equilibrium characterization of Sc(AAZTA), 7 samples were prepared in which the concentration of Sc^3+ and AAZTA was 203.3 μM and 207.1 μM, while that of the NTA was varied between 0 and 20.06 mM (7×2 mL samples with the addition of AAZTA to the pre-prepared […] complex) in 0.15 M NaCl solution. […] The samples were kept at 25° C. for 8 weeks in order to attain the equilibrium (the time needed to reach the equilibria was determined by ^45Sc NMR spectroscopy). […]

CC1(N(CC(=O)O)CC(=O)O)CN(CC(=O)O)CCN(CC(=O)O)C1 [AAZTA, 6-amino-6-methylperhydro-1,4-diazepinetetraacetic acid]
log K1^H (protonation constant) [1]: 9.98
log K2^H (protonation constant) [1]: 6.52
log K3^H (protonation constant) [1]: 3.76
log K4^H (protonation constant) [1]: 2.21
log K1^H (protonation constant) ([2]; 25° C.): 10.29
log K2^H (protonation constant) ([2]; 25° C.): 6.51
log K3^H (protonation constant) ([2]; 25° C.): 3.86
log K4^H (protonation constant) ([2]; 25° C.): 1.94
log K5^H (protonation constant) ([2]; 25° C.): 1.00

CC1(N(CC(=O)[O-])CC(=O)[O-])CN(CC(=O)[O-])CCN(CC(=O)[O-])C1.[Bi+3] [Bi(AAZTA)]
log KBi(AAZTA) (thermodynamic stability constant) ([2]; 25° C.): 26.45 (6)
log K^cond (conditional stability constant) ([2]; pH=7.4, 25° C.): 23.5
kd (rate constant of dissociation) [3]: 1.67e-06 s⁻¹

O=C(O)CN(CC(=O)O)CC(=O)O [NTA, nitrilo-triacetic acid, reference compound]
log K1^H (protonation constant) ([2]; NTA ligand, 25° C.): 9.22
log K2^H (protonation constant) ([2]; NTA ligand, 25° C.): 2.98
log K3^H (protonation constant) ([2]; NTA ligand, 25° C.): 1.06
log K1^H (protonation constant) [4]: 9.13 (1)
log K2^H (protonation constant) [4]: 2.63 (2)
log K3^H (protonation constant) [4]: 1.64 (3)
